Results as given in patent US10669545B2, “Tumor cell malignant transformation suppressor and anti-tumor agent” (JAPAN SCIENCE AND TECHNOLOGY AGENCY, priority 2015, dated 2020).

Experiments:
Assay type in all cases: cell-based, human
[1] = test system: SK-MEL-28 cells; test: Cell morphology after siRNA transfection, SK-MEL-28 cells; settings: not shown
[2] = test system: phosphorylated ERK1/2 (Thr202/204) (pERK); test: Western blotting of phosphorylated ERK1/2; settings: vemR-3 cells; PLX4032 or DMSO treatment; siRNA vs siNeg
Experimental: Western blotting was performed in the same manner as above except that anti-pAKT antibody (manufactured by Cell Signaling), anti-AKT antibody (manufactured by Cell Signaling), anti-pERK antibody (manufactured by Cell Signaling), anti-ERK antibody (manufactured by Cell Signaling), and anti-β-actin antibody (manufactured by Sigma) were used.
vemR-1 to 3 cells and HT144 cells were treated with DMSO or PLX4032 solution (which was dissolved in DMSO to become 5 μM) for 48 hours, and the level of pAKT, AKT, pERK, ERK, and β-actin of these cells was assessed by western blotting in the same manner as Example 8.
A375 cells were treated in a medium in which a concentration of a FAK inhibitor I (manufactured by Calbiochem) was 0, 1, 2.5, or 5 μM for 24 hours, and the level of ZIC5, pro-PDGFD, pERK, and β-actin was measured by western blotting. Western blotting was performed in the same manner as above except that anti-ZIC5 antibody (manufactured by Aviva systems biology), anti-PDGFD antibody (manufactured by Santa Cruz), anti-pERK antibody (manufactured by Cell Signaling), and anti-β-actin antibody (manufactured by Sigma) were used.
A375 cells were treated in a medium in which a concentration of Interleukin-6 (IL-6) (manufactured by Novus Biologicals) was 0, 10, or 20 ng/mL for 24 hours, and then western blotting was performed to assess the level of ZIC5, pro-PDGFD, pSTAT3, STAT3, and GAPDH. […]

[3] = test system: DU145 cells; test: Cell number count, DU145 cells; settings: 0, 2, or 3 days after transfection
Description: First, DU145 cells were transfected with siZIC5#1, siZIC5#2, siNeg#1, or siNeg#2 described in Table 2 in the same manner as Example 1, and the number of cells 0, 2, or 3 days after transfection was counted. The result of calculating a relative cell number of each cell (the number of cells on 0th day after transfection (before transfection) was set to 1) (n=3) is shown in FIG. 44.
The result of calculating a relative cell number of each cell (the number of cells on 0th day after transfection (before transfection) was set to 1) (n=3) is shown in FIG. 47.

[4] = test system: DU145 cells; test: Annexin V-positive cells, DU145 cells; settings: siRNA then docetaxel 5 nM for 24 hours
Experimental: (§1) The percentage of Annexin V-positive cells was measured as follows. First, FITC labeled Annexin V (manufactured by MBL, Nagoya, Japan) and Hoechst33342 were added to each cell and incubated for 40 minutes. Next, a stained state of the incubated cells was analyzed by using DAPI filter and FITC filter of an imaging cytometer, “In Cell Analyzer 2000” (manufactured by GE healthcare). Percentage (%) of […] was determined by In Cell Analyzer Workstation 3.7 (manufactured by GE healthcare). The statistical difference was determined by the Tukey's multiple comparisons of means test (**: P<0.01, *: P<0.05).

[5] = test system: vemR-3 cells; test: Annexin V-positive cells, vemR-3 cells; settings: vs siNeg
Experimental: as §1
A percentage of apoptotic cells in the obtained cells was detected by using FITC labeled Annexin V (manufactured by MBL, Nagoya, Japan) in the same manner as Example 7.

siPDGFD#1: siRNA for PDGFD gene; targeting sequence CAGGAATTACTCGGTCAATAT (SEQ. NO. 28) (listed as DNA, chemistry not given here)
morphological change of cells after siRNA transfection [1]: morphological change occurred
pERK level (inactivation of ERK) [2]: the pERK level decreased
relative cell number (0th day set to 1), cell proliferation rate [3]: decreased
apoptosis induced by docetaxel (percentage of Annexin V-positive cells) [4]: significantly increased
percentage of Annexin V-positive cells [5]: significantly increased
